Reference: patent publication US20260042731A1, “(2,4-DICHLOROPHENOXY)ACETIC ACID ANALOGS” (CORTEVA AGRISCIENCE LLC, priority 2022, published 2026)
Read-outs that look alike come from different tables or passages of the source.

Tests used:
[1] = system: Amaranthus rudis (AMATA), tall water hemp; assay: Postemergence herbicide evaluation, growth of Amaranthus rudis (AMATA); type: in vivo; details: for pest or weed control at 280 g/ha / pest or weed control at 560 g/ha: Amaranthus tuberculatus, post-emergence, read-out: Ave. AMATA, percent reduction in plant size relative to the untreated control
[2] = system: Ambrosia artemisiifolia (AMBEL), common ragweed; assay: Postemergence herbicide evaluation, growth of Ambrosia artemisiifolia (AMBEL); type: in vivo; details: Ambrosia artemisiifolia, post-emergence, read-out: AVE. AMBEL, percent reduction in plant size relative to the untreated control; for pest or weed control at 280 g/ha: 280 g ae/ha; for pest or weed control at 560 g/ha: 560 g ae/ha
[3] = system: Abutilon theophrasti (ABUTH), velvetleaf; assay: Postemergence herbicide evaluation, growth of Abutilon theophrasti (ABUTH); type: in vivo; details: for AVE. ABUTH, percent reduction in plant size relative to the untreated control / pest or weed control at 280 g/ha: 280 g ae/ha; for pest or weed control at 560 g/ha / pest or weed control at 280 g/ha: Abutilon theophrasti, post-emergence, read-out: AVE. ABUTH, percent reduction in plant size relative to the untreated control; for pest or weed control at 560 g/ha: 560 g ae/ha
[4] = system: Chenopodium album (CHEAL), common lambsquarters; assay: Postemergence herbicide evaluation, growth of Chenopodium album (CHEAL); type: in vivo; details: Chenopodium album, post-emergence, read-out: Ave. CHEAL, percent reduction in plant size relative to the untreated control; for pest or weed control at 280 g/ha: 280 g ae/ha; for pest or weed control at 560 g/ha: 560 g ae/ha
[5] = system: glyphosate resistant Conyza canadensis (L.) (ERICA), horseweed; assay: Postemergence herbicide evaluation, growth of Conyza canadensis (ERICA); type: in vivo; details: Erigeron canadensis, post-emergence, read-out: Ave. ERICA, percent reduction in plant size relative to the untreated control; for pest or weed control at 280 g/ha: 280 g ae/ha; for pest or weed control at 560 g/ha: 560 g ae/ha
[6] = Volatility of compounds measured by thermogravimetric analysis (TGA); type: physicochemical
[7] = system: weeds ABUTH, AMATA, AMBEL, CHEAL, ERICA; assay: Postemergence herbicide evaluation, overall average % weed control (ABUTH, AMATA, AMBEL, CHEAL, ERICA); type: in vivo; details: post-emergence, read-out: Overall Ave % Weed Control; for pest or weed control at 280 g/ha: 280 g ae/ha; for pest or weed control at 560 g/ha: 560 g ae/ha

With O=C(COc1ccc(Cl)cc1Cl)Oc1cncnc1 [Compound E14, Pyrimidin-5-yl 2-(2,4-dichlorophenoxy)acetate] the “Ave. AMATA, percent reduction in plant size relative to the untreated control” value ([1]; 280 g ae/ha, 21 DAA) was 92.5%, the “Ave. AMATA, percent reduction in plant size relative to the untreated control” value ([1]; 560 g ae/ha, 7 DAA) was 98.5% and the pest or weed control at 280 g/ha ([1]; 168 h, 280 g ae/ha, 7 DAA) was 89%. The pest or weed control at 280 g/ha ([1]; 336 h, 280 g ae/ha, 14 DAA) was 90%, the pest or weed control at 560 g/ha ([1]; 336 h, 560 g ae/ha, 14 DAA) was 97% and the pest or weed control at 560 g/ha ([1]; 504 h, 560 g ae/ha, 21 DAA) was 100%. For the same compound, the pest or weed control at 280 g/ha ([2]; 168 h, 7 DAA) was 82.5%, the pest or weed control at 560 g/ha ([2]; 168 h, 7 DAA) was 77.5% and the pest or weed control at 280 g/ha ([2]; 336 h, 14 DAA) was 92.5%. The pest or weed control at 560 g/ha ([2]; 336 h, 14 DAA) was 98.5%, the pest or weed control at 280 g/ha ([2]; 504 h, 21 DAA) was 100% and the pest or weed control at 560 g/ha ([2]; 504 h, 21 DAA) was 99.5%. The “AVE. ABUTH, percent reduction in plant size relative to the untreated control” value ([3]; 7 DAA) was 65%, the “AVE. ABUTH, percent reduction in plant size relative to the untreated control” value ([3]; 14 DAA) was 65% and the pest or weed control at 560 g/ha ([3]; 168 h, 7 DAA) was 67.5%. For the same compound, the pest or weed control at 560 g/ha ([3]; 336 h, 14 DAA) was 77.5%, the pest or weed control at 280 g/ha ([3]; 504 h, 21 DAA) was 97.5% and the pest or weed control at 560 g/ha ([3]; 504 h, 21 DAA) was 97.5%. It also gave a pest or weed control at 280 g/ha ([4]; 168 h, 7 DAA) of 80%, a pest or weed control at 560 g/ha ([4]; 168 h, 7 DAA) of 77.5% and a pest or weed control at 280 g/ha ([4]; 336 h, 14 DAA) of 90%. It also gave a pest or weed control at 560 g/ha ([4]; 336 h, 14 DAA) of 92.5%, a pest or weed control at 280 g/ha ([4]; 504 h, 21 DAA) of 95% and a pest or weed control at 560 g/ha ([4]; 504 h, 21 DAA) of 100%. For the same compound, the pest or weed control at 280 g/ha ([5]; 168 h, 7 DAA) was 75%, the pest or weed control at 560 g/ha ([5]; 168 h, 7 DAA) was 85% and the pest or weed control at 280 g/ha ([5]; 336 h, 14 DAA) was 92.5%. The pest or weed control at 560 g/ha ([5]; 336 h, 14 DAA) was 98%, the pest or weed control at 280 g/ha ([5]; 504 h, 21 DAA) was 96% and the pest or weed control at 560 g/ha ([5]; 504 h, 21 DAA) was 99%. For the same compound, the “TGA Data (rate of weight loss, volatility)” value [6] was 0.0575 µg/min, the pest or weed control at 280 g/ha ([7]; 168 h, 7 DAA) was 78.3% and the pest or weed control at 560 g/ha ([7]; 168 h, 7 DAA) was 81.2%. It also gave a pest or weed control at 280 g/ha ([7]; 336 h, 14 DAA) of 86%, a pest or weed control at 560 g/ha ([7]; 336 h, 14 DAA) of 92.7% and a pest or weed control at 280 g/ha ([7]; 504 h, 21 DAA) of 96.2%. It also gave a pest or weed control at 560 g/ha ([7]; 504 h, 21 DAA) of 99.2%.

Work on C/C(=N\OC(=O)COc1ccc(Cl)cc1Cl)c1ccccc1 [Compound A1, Acetophenone O-(2-(2,4-dichlorophenoxy)acetyl) oxime] yielded a pest or weed control at 280 g/ha ([1]; 168 h, 280 g ae/ha, 7 DAA) of 73%, a pest or weed control at 560 g/ha ([1]; 168 h, 560 g ae/ha, 7 DAA) of 78% and a pest or weed control at 280 g/ha ([1]; 336 h, 280 g ae/ha, 14 DAA) of 85%. For the same compound, the pest or weed control at 560 g/ha ([1]; 336 h, 560 g ae/ha, 14 DAA) was 87%, the pest or weed control at 280 g/ha ([1]; 504 h, 280 g ae/ha, 21 DAA) was 80% and the pest or weed control at 560 g/ha ([1]; 504 h, 560 g ae/ha, 21 DAA) was 82%. It also gave a pest or weed control at 280 g/ha ([2]; 168 h, 7 DAA) of 65%, a pest or weed control at 560 g/ha ([2]; 168 h, 7 DAA) of 80% and a pest or weed control at 280 g/ha ([2]; 336 h, 14 DAA) of 88%. It also gave a pest or weed control at 560 g/ha ([2]; 336 h, 14 DAA) of 97%, a pest or weed control at 280 g/ha ([2]; 504 h, 21 DAA) of 95% and a pest or weed control at 560 g/ha ([2]; 504 h, 21 DAA) of 100%. The pest or weed control at 280 g/ha ([3]; 168 h, 7 DAA) was 83%, the pest or weed control at 560 g/ha ([3]; 168 h, 7 DAA) was 85% and the pest or weed control at 280 g/ha ([3]; 336 h, 14 DAA) was 96%. The pest or weed control at 560 g/ha ([3]; 336 h, 14 DAA) was 97%, the pest or weed control at 280 g/ha ([3]; 504 h, 21 DAA) was 97% and the pest or weed control at 560 g/ha ([3]; 504 h, 21 DAA) was 100%. For the same compound, the pest or weed control at 280 g/ha ([4]; 168 h, 7 DAA) was 70%, the pest or weed control at 560 g/ha ([4]; 168 h, 7 DAA) was 70% and the pest or weed control at 280 g/ha ([4]; 336 h, 14 DAA) was 78%. For the same compound, the pest or weed control at 560 g/ha ([4]; 336 h, 14 DAA) was 89%, the pest or weed control at 280 g/ha ([4]; 504 h, 21 DAA) was 83% and the pest or weed control at 560 g/ha ([4]; 504 h, 21 DAA) was 98%. It also gave a pest or weed control at 280 g/ha ([5]; 168 h, 7 DAA) of 73%, a pest or weed control at 560 g/ha ([5]; 168 h, 7 DAA) of 73% and a pest or weed control at 280 g/ha ([5]; 336 h, 14 DAA) of 90%. It also gave a pest or weed control at 560 g/ha ([5]; 336 h, 14 DAA) of 90%, a pest or weed control at 280 g/ha ([5]; 504 h, 21 DAA) of 93% and a pest or weed control at 560 g/ha ([5]; 504 h, 21 DAA) of 98%. The “TGA Data (rate of weight loss, volatility)” value [6] was 0.5 µg/min, the pest or weed control at 280 g/ha ([7]; 168 h, 7 DAA) was 73% and the pest or weed control at 560 g/ha ([7]; 168 h, 7 DAA) was 77%. For the same compound, the pest or weed control at 280 g/ha ([7]; 336 h, 14 DAA) was 87%, the pest or weed control at 560 g/ha ([7]; 336 h, 14 DAA) was 92% and the pest or weed control at 280 g/ha ([7]; 504 h, 21 DAA) was 89%. The pest or weed control at 560 g/ha ([7]; 504 h, 21 DAA) was 95%.
